The text below walks through data of US20050112573A1, “Method of detecting toxic substance” (priority 2001, published 2005).

Common to all, as to assay type: cell-based, Saccharomyces cerevisiae W303
Assay [1] relates to promoter of yeast gene YOR382w. The text has this: (§1) The inventors of the present application understood that the induction of certain yeast genes by toxic substances is caused by the activation of the promoters of the genes by the toxic substances. Thus, the inventors prepared a vector that comprised a polynucleotide sequence comprising the promoter of the yeast gene, which sequence is operably linked to a polynucleotide encoding a marker protein; and transformed yeast cells with the vector. […] The working examples hereinafter illustrate the preparation of such vectors, transformation of yeast cells by use of said vectors, and the detection of toxic substances by use of the transformed cells.
(§2) Promoter assay is a method for determining variations of the level of intracellular genes without destroying cells on the basis of the level of expressed marker genes instead of the expressed mRNA. The gene selected to detect a chemical substance is expressed in the absence of chemical substances, and thus a marker protein also occurs in the absence of chemical substances. In the method according to the present invention, the behavior of yeast genes on the addition of test materials is determined on the basis of the level of expressed marker protein so that the presence or the absence, and the kind of toxic chemical substances are predicted. Thus, it is desired that the production of marker proteins is lower in the absence of chemical substances, and the production of marker proteins is higher in the presence of chemical substances.
(§3) Type YEp shuttle vector pYES2 (pYES2, Cat no: V825-20, Invirtogen Corporation, USA), which can be replicated both in E. coli. and yeast was used as vector (R. W. Old, S. B. Primrose Principles of Gene Manipulation 5th Ed., BAIFUKAN CO., LTD, pp138-165, pp.234-263, 2000). The portion of vector pQBI 63 (Cat no.54-0082, Wako Pure Chemical Industries, Ltd.) corresponding to a marker protein GFP was used as the polynucleotide encoding GFP (SEQ ID No: 6). First, the GFP polynucleotide was inserted into the multiple cloning sites of pYES2 to give a vector. Thereafter, the GAL1 promoter of pYES2 was replaced with the polynucleotide comprising the promoter sequence of the intended yeast gene YOR382w (SEQ ID No: 3) to give an intended plasmid vector. Suitable restriction enzymes were selected, and the insertion of the polynucleotide comprising GFP and the promoter sequence was conducted.
(§4) Next, the yeast Saccharomyces cerevisiae W303 was transformed with the resultant plasmid vector according to the following procedures: • 1) Incubating the yeast Saccharomyces cerevisiae W303 in 200 ml of SD medium under shaking until OD 660 reaches 0.5; • 2) Suspending the collected cells in 5 ml of TE-buffer; • 3) Adding 250 μL of 2.5M lithium acetate; • 4) Dispending each 300 μl, adding 10 μl of above plasmid vector thereto, then incubating the suspensions at 30° C. for 30 minutes; • 5) Adding 700 μl of 50% PEG4000, and incubating the mixture under shaking at 30° C. for 60 minutes; • 6) Giving heat shock (42° C., 5 minutes), and then immediately cooling the mixture; • 7) Washing the mixture twice with 1M sorbitol; and • 8) Seeding it on agar plates made of minimum essential medium.
The cells of SC-YOR382W-pQBI as prepared in Example 4 were contacted to one of the following compounds. The yeast cells SC-YOR382W-pQBI were incubated at 25° C. in SD medium (Yeast nitrogen base without amino acids (Difco 0919-15)+glucose+amino acids (adenine, histidine, tryptophan)). One of toxic chemical substances as shown below was added to the cells at logarithmic growth phase, and then the cells were further incubated for two hours.

For assay [2], the system named is promoter of yeast gene YLR303w. The settings on record: SC-YCR303W-pQBI cells (so in the source); summary of Table 14.
Excerpt: as §1, §2
as §3, with “YLR303w” for “YOR382w”, “5)” for “3)”
as §4
The cells of SC-YCR303W-pQBI as prepared in Example 6 were contacted to one of the following compounds. The yeast cells SC-YCR303W-pQBI were incubated at 25° C. in SD medium (Yeast nitrogen base without amino acids (Difco 0919-15)+glucose+amino acids (adenine, histidine, tryptophan)). One of toxic chemical substances as shown below was added to the cells at logarithmic growth phase, and then the cells were further incubated for two hours.

Assay [3] concerns promoter of yeast gene YLL057c. The settings on record: SC-YLL057C-pQBI cells; summary of Table 13.
Excerpt: as §1, §2
as §3, with “PQBI” for “pQBI”, “GALL” for “GAL1”, “YLL057c” for “YOR382w”, “4)” for “3)”
as §4
The cells of SC-YLL057C-pQBI as prepared in Example 5 were contacted to one of the following compounds. The yeast cells SC-YLL057C-pQBI were incubated at 25° C. in SD medium (Yeast nitrogen base without amino acids (Difco 0919-15)+glucose+amino acids (adenine, histidine, tryptophan)). One of toxic chemical substances as shown below was added to the cells at logarithmic growth phase, and then the cells were further incubated for two hours.

[4] abbreviates: SC-YOR382W-pQBI cells, summary of Table 12.

The structures appear in SMILES notation. Read-outs that look alike come from different tables or passages of the source.

For the compound `CCCCCCCCCc1ccc(O)cc1` [p-nonylphenol], the “expression of GFP” value in assay [1] (setting [4]) is on record as “induced the expression of GFP”. With `Oc1ccccc1` [phenol], the “expression of GFP” value in assay [1] is on record as “induced the expression of GFP”. `c1ccc2c(c1)cc1ccc3cccc4ccc2c1c34` [benzo(a)pyrene]: the “expression of GFP” value in assay [2] is given as “induced the expression of GFP”. As to `O=C(O)COc1ccc(Cl)cc1Cl` [2,4-dichlorophenoxyacetic acid], the “expression of GFP” value in assay [2], in assay [1] (setting [4]) and in assay [3] was “induced the expression of GFP” in each case.
